Results from patent US20140329858A1, “Cyclic Urea Derivatives As Androgen Receptor Antagonists” (priority 2011, published 2014).

system: Vcap cells; experiment: Dihydrotestosterone (DHT) mediated XTT cell proliferation assay for screening AR antagonists using Vcap cells; assay type: cell-based; conditions: 0.2 nM DHT, effect reached at high conc
Protocol: Dihydrotestosterone (DHT) Mediated XTT Cell Proliferation Assay for Screening AR Antagonists Using Vcap cells
The Vcap cells (4×10^6 cells) were seeded in a T-75 flask containing DMEM with 15% FBS. After 72 hours, the media was removed; the cells were washed once and replaced with phenol red free DMEM containing 8% charcoal stripped serum. Then, the cells were starved in phenol red free DMEM with 8% charcoal stripped serum for 5 days. Following the starvation, the cells were harvested and seeded in 96 well plates (10×10^3 cells per well) in phenol red free DMEM with 8% charcoal stripped serum (Day 0). The cells were allowed to settle and on Day 4 they were treated with different concentrations of the compound (30 μM, 10 μM, 1 μM, 500 nM, 100 nM, 10 nM, 1 nM, 0.1 nM) in the presence of 0.2 nM DHT. DHT alone and a DMSO controls were also included. All treatments were done in triplicate. The drugs were replenished on Day 7 and the cells were allowed to grow for another 72 hours. On Day 10, the experiment was terminated by adding the XTT reagent (2,3-bis[2-methoxy-4-notro-5-sulfophenyl]-2H-tetrazolium-5-caboxyanilide inner salt) dissolved in Phenol red free DMEM without serum. The cells with the XTT reagents were incubated inside the CO2 incubator for 3-4 hours for color development; after which the readings were taken at […] using a spectramax Gemini plate reader.
Data fitting: The IC50 curves for the 8 compound concentrations were calculated with GraphPad Prism software using the sigmoidal dose-response function. (Graphpad Software, San Diego, Calif., USA).

With CNC(=O)c1ccc(N2C(=O)N(c3ccc(C#N)c(C(F)(F)F)c3)[C@@H]3CCCC[C@H]32)cn1 (racemic) [Example 53, Trans-5-(3-(4-cyano-3-(trifluoromethyl)phenyl)-2-oxooctahydro-1H-benzo[d]imidazol-1-yl)-N-methylpicolinamide (±)] the “XTT: only 65% @ high conc” value was 65%.

same assay, conditions: Homo sapiens, 240 h, in the presence of 0.2 nM DHT, XTT readout on Day 10, IC50 curves from 8 concentrations

Point of comparison: N#Cc1ccc(N2C(=O)N(c3ccc(CO)c(F)c3)[C@H]3CCCC[C@@H]32)cc1C(F)(F)F [Example 46, 4-((3aS,7aS)-3-(3-fluoro-4-(hydroxymethyl)phenyl)-2-oxooctahydro-1H-benzo[d]imidazol-1-yl)-2-(trifluoromethyl)benzonitrile], IC50 0.66 µM. Against it:
- CC(=O)N(C)c1ccc(N2C(=O)N(c3ccc(C#N)c(C(F)(F)F)c3)[C@@H]3CCCC[C@H]32)cc1F (racemic) [Example 13, Trans-N-(4-(3-(4-cyano-3-(trifluoromethyl)phenyl)-2-oxooctahydro-1H-benzo[d]imidazol-1-yl)-2-fluorophenyl)-N-methylacetamide (±)] — 1.6-fold higher, 1.05 µM
- N#Cc1ccc(N2C(=O)N(c3cc(Cl)cc(Cl)c3)[C@@H]3CCCC[C@H]32)cc1C(F)(F)F (racemic) [Example 43, Trans-4-(3-(3,5-dichlorophenyl)-2-oxooctahydro-1H-benzo[d]imidazol-1-yl)-2-(trifluoromethyl)benzonitrile (±)] — 1.9-fold lower, 0.339 µM
- CNC(=O)c1cc(N2C(=O)N(c3ccc(C#N)c(C(F)(F)F)c3)[C@H]3CCCC[C@@H]32)ccn1 [Example 56, 4-((3aS,7aS)-3-(4-cyano-3-(trifluoromethyl)phenyl)-2-oxooctahydro-1H-benzo[d]imidazol-1-yl)-N-methylpicolinamide] — 2.8-fold higher, 1.82 µM
- N#Cc1ccc(N2C(=O)N(c3ccc(C(N)=O)cc3)[C@H]3CCCC[C@@H]32)cc1C(F)(F)F [Example 66, 4-((3aS,7aS)-3-(4-cyano-3-(trifluoromethyl)phenyl)-2-oxooctahydro-1H-benzo[d]imidazol-1-yl)benzamide] — 2.5-fold lower, 0.261 µM
- N#Cc1ccc(N2C(=O)N(c3ccnc(C(F)(F)F)c3)[C@@H]3CCCC[C@H]32)cc1C(F)(F)F (racemic) [Example 11, Trans-4-(2-oxo-3-(2-(trifluoromethyl)pyridin-4-yl)octahydro-1H-benzo[d]imidazol-1-yl)-2-(trifluoromethyl)benzonitrile (±)] — 1.9-fold higher, 1.24 µM
- N#Cc1ccc(N2C(=O)N(c3ccc(C(=O)NOCC4CC4)c(F)c3)[C@@H]3CCCC[C@H]32)cc1C(F)(F)F (racemic) [Example 19, Trans-4-(3-(4-cyano-3-(trifluoromethyl)phenyl)-2-oxooctahydro-1H-benzo[d]im-idazol-1-yl)-N-(cyclopropylmethoxy)-2-fluorobenzamide (±)] — 2.8-fold lower, 0.233 µM
- CNc1ccc(N2C(=O)N(c3ccc(C#N)c(C(F)(F)F)c3)[C@@H]3CCCC[C@H]32)cc1F (racemic) [Example 14, Trans-4-(3-(3-fluoro-4-(methylamino)phenyl)-2-oxooctahydro-1H-benzo[d]im-idazol-1-yl)-2-(trifluoromethyl)benzonitrile (±)] — within 1.5-fold, 0.715 µM
- CNC(=O)c1ccc(N2C(=O)N(c3ccc(C#N)c(C(F)(F)F)c3)[C@@H]3CCC(=O)C[C@H]32)cc1F (racemic) [Example 81, Trans-4-(3-(4-cyano-3-(trifluoromethyl)phenyl)-2,6-dioxooctahydro-1H-benzo[d]imidazol-1-yl)-2-fluoro-N-methylbenzamide (±)] — within 1.5-fold, 0.703 µM
- CNC(=O)c1ccc(N2C(=O)N(c3ccc(C#N)c(C(F)(F)F)c3)[C@@H]3CCCC[C@H]32)cn1 (racemic) [Example 53, Trans-5-(3-(4-cyano-3-(trifluoromethyl)phenyl)-2-oxooctahydro-1H-benzo[d]imidazol-1-yl)-N-methylpicolinamide (±)] — 4-fold lower, 0.165 µM
- N#Cc1ccc(N2C(=O)N(c3ccc(C(=O)O)c(F)c3)[C@@H]3CCCC[C@H]32)cc1C(F)(F)F (racemic) [Example 17, Trans-4-(3-(4-cyano-3-(trifluoromethyl)phenyl)-2-oxooctahydro-1H-benzo[d]im-idazol-1-yl)-2-fluorobenzoic acid (±)] — higher, > 10 µM
- CNC(=O)c1ccc(N2C(=O)N(c3ccc(C#N)c(C(F)(F)F)c3)[C@@H]3CC=CC[C@H]32)cc1F (racemic) [Example 83, Trans-4-(3-(4-cyano-3-(trifluoromethyl)phenyl)-2-oxo-2,3,3a,4,7,7a-hexahydro-1H-benzo[c]imidazol-1-yl)-2-fluoro-N-methylbenzamide (±)] — 4.5-fold lower, 0.148 µM
- N#Cc1ccc(N2C(=O)N(Cc3ccc(-n4ccnc4)nc3)[C@@H]3CCCC[C@H]32)cc1C(F)(F)F (racemic) [Example 49, Trans-4-(34(6-(1H-imidazol-1-yl)pyridin-3-yl)methyl)-2-oxooctahydro-1H-benzo[d]imidazol-1-yl)-2-(trifluoromethyl)benzonitrile (±)] — 2.2-fold lower, 0.3 µM
- CN1CCC(ONC(=O)c2ccc(N3C(=O)N(c4ccc(C#N)c(C(F)(F)F)c4)[C@@H]4CCCC[C@H]43)cc2F)CC1 (racemic) [Example 28, Trans 4-(3-(4-cyano-3-(trifluoromethyl)phenyl)-2-oxooctahydro-1H-benzo[c]im-idazol-1-yl)-2-fluoro-N-((1-methylpiperidin-4-yl)oxy)benzamide (±)] — 4.5-fold lower, 0.148 µM
- CS(=O)(=O)Nc1ccc(N2C(=O)N(c3ccc(C#N)c(C(F)(F)F)c3)[C@@H]3CCCC[C@H]32)cc1F (racemic) [Example 16, Trans-N-(4-(3-(4-cyano-3-(trifluoromethyl)phenyl)-2-oxooctahydro-1H-benzo[d]imidazol-1-yl)-2-fluorophenyl)methanesulfonamide (±)] — 3.7-fold higher, 2.45 µM
- CN1C(=O)N(c2ccc(C#N)c(C(F)(F)F)c2)[C@@H]2CCC(c3ccccc3)=C[C@H]21 (racemic) [Example 91, Trans-4-3-methyl-2-oxo-5-phenyl-2,3,3a,6,7,7a-hexahydro-1H-benzo[d]imidazol-1-yl)-2-(trifluoromethyl)benzonitrile (±)] — 2-fold lower, 0.323 µM
- N#Cc1ccc(N2C(=O)N(c3ccncc3)[C@@H]3CCCC[C@H]32)cc1C(F)(F)F (racemic) [Example 4, Trans-4-(2-oxo-3-(pyridin-4-yl)octahydro-1H-benzo[d]imidazol-1-yl)-2-(trifluoromethyl)benzonitrile (±)] — 1.6-fold higher, 1.04 µM
- CNC(=O)c1ccc(N2C(=O)N(c3ccc(C#N)c(C(F)(F)F)c3)[C@@H]3CC(OC)CC[C@H]32)cc1F (mixture of isomers) [Example 85, Trans-4-(3-(4-cyano-3-(trifluoromethyl)phenyl)-5-methoxy-2-oxooctahydro-1H-benzo[d]imidazol-1-yl)-2-fluoro-N-methylbenzamide (±)] — 4-fold higher, 2.62 µM
- Cc1cc(N2C(=O)N(c3ccc(C#N)c(C(F)(F)F)c3)[C@H]3CCCC[C@@H]32)ccc1C(=O)O [Example 69, 4-((3aS,7aS)-3-(4-cyano-3-(trifluoromethyl)phenyl)-2-oxooctahydro-1H-benzo[d]imidazol-1-yl)-2-methylbenzoic acid] — higher, > 10 µM
- CC(=O)Nc1ccc(N2C(=O)N(c3ccc(C#N)c(C(F)(F)F)c3)[C@@H]3CCCC[C@H]32)cc1F (racemic) [Example 12] — within 1.5-fold, 0.533 µM
- CNC(=O)c1ccc(N2C(=O)N(c3ccc(C#N)c(C(F)(F)F)c3)[C@@H]3COCC[C@H]32)cc1F (racemic) [Example 71, Trans-4-{3-[4-Cyano-3-(trifluoromethyl)phenyl]-2-oxo-octahydropyrano[3,4-d]imidazolidin-1-yl}-2-fluoro-N-methylbenzamide (±)] — within 1.5-fold, 0.655 µM
- N#Cc1ccc(N2C(=O)N(c3ccc(C(=O)NCCO)c(F)c3)[C@@H]3CCCC[C@H]32)cc1C(F)(F)F (racemic) [Example 32, Trans 4-(3-(4-cyano-3-(trifluoromethyl)phenyl)-2-oxooctahydro-1H-benzo[d]im-idazol-1-yl)-2-fluoro-N-(2-hydroxyethyl)benzamide (±)] — 1.8-fold lower, 0.377 µM
- N#Cc1ccc(N2C(=O)N(c3ccc(C(=O)NCCO)c(F)c3)[C@H]3CCCC[C@@H]32)cc1C(F)(F)F [Example 33, 4-((3aS,7aS)-3-(4-cyano-3-(trifluoromethyl)phenyl)-2-oxooctahydro-1H-benzo[d]imidazol-1-yl)-2-fluoro-N-(2-hydroxyethyl)benzamide] — 15-fold lower, 0.0436 µM
- N#Cc1ccc(N2C(=O)N(c3ccccc3)[C@@H]3CCCC[C@H]32)cc1C(F)(F)F (racemic) [Example 5, Trans-4-(2-oxo-3-phenyloctahydro-1H-benzo[d]imidazol-1-yl)-2-(trifluoromethyl)benzonitrile (±)] — 1.5-fold higher, 1.02 µM

same assay, conditions: in the presence of 0.2 nM DHT, XTT readout on Day 10, IC50 curves from 8 concentrations

Point of comparison: CNC(=O)c1ccc(N2C(=O)N(c3ccc(C#N)c(C(F)(F)F)c3)[C@@H]3CCCCC[C@H]32)cc1F (relative stereo) [Example 80a, Trans-4-(3-(4-cyano-3-(trifluoromethyl)phenyl)-2-oxooctahydrocyclohepta[d]imidazol-1(2H)-yl)-2-fluoro-N-methylbenzamide (−)], IC50 0.0937 µM. Against it:
- CNC(=O)c1ccc(N2C(=O)N(c3ccc(C#N)c(C(F)(F)F)c3)[C@@H]3CCCC[C@H]32)cc1F (relative stereo) [Example 1b, Trans-4-{3-[4-cyano-3-(trifluoromethyl)phenyl]-2-oxo-octahydro-1H-1,3-benzodiazol-1-yl}-2-fluoro-N-Methylbenzamide (−)] — within 1.5-fold, 0.0906 µM
- N#Cc1ccc(N2C(=O)N(c3ccccc3)[C@@H]3CCCC[C@H]32)cc1C(F)(F)F (relative stereo) [Example 5b, Trans-4-(2-oxo-3-phenyloctahydro-1H-benzo[d]imidazol-1-yl)-2-(trifluoromethyl)benzonitrile (−)] — 11-fold higher, 1.05 µM
